Test results published in PubChem BioAssay (NCI).
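Compound exposure: 48 hours, 5 concentrations, 96-well plates. At the TGI there is no net growth.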

Columns and labels:
Test in all cases: NCI anticancer screen, dose series, 48 h
NCI/ADR-RES ovarian = test system: NCI/ADR-RES ovarian
COLO 205 colon = test system: COLO 205 colon
HL-60(TB) leukemia = test system: HL-60(TB) leukemia
UACC-257 melanoma = test system: UACC-257 melanoma
HOP-62 NSCLC = test system: HOP-62 NSCLC
UO-31 renal = test system: UO-31 renal
HCC-2998 colon = test system: HCC-2998 colon
OVCAR-5 ovarian = test system: OVCAR-5 ovarian
KM12 colon = test system: KM12 colon
SN12C renal = test system: SN12C renal
SF-268 CNS = test system: SF-268 CNS
MDA-MB-435 = test system: MDA-MB-435
M14 melanoma = test system: M14 melanoma
EKVX NSCLC = test system: EKVX NSCLC
MDA-MB-231 breast = test system: MDA-MB-231 breast
TK-10 renal = test system: TK-10 renal
K-562 leukemia = test system: K-562 leukemia
SW-620 colon = test system: SW-620 colon
HCT-15 colon = test system: HCT-15 colon
MDA-N = test system: MDA-N
PC-3 prostate = test system: PC-3 prostate
SF-295 CNS = test system: SF-295 CNS
SNB-19 CNS = test system: SNB-19 CNS
T-47D breast = test system: T-47D breast
NCI-H522 lung = test system: NCI-H522 lung
ACHN renal = test system: ACHN renal
U251 CNS = test system: U251 CNS
786-0 renal = test system: 786-0 renal
SF-539 CNS = test system: SF-539 CNS
MCF7 breast = test system: MCF7 breast
MOLT-4 leukemia = test system: MOLT-4 leukemia
SK-MEL-28 melanoma = test system: SK-MEL-28 melanoma
CCRF-CEM leukemia = test system: CCRF-CEM leukemia
RPMI-8226 leukemia = test system: RPMI-8226 leukemia
IGROV1 ovarian = test system: IGROV1 ovarian
NCI-H460 lung = test system: NCI-H460 lung
OVCAR-8 ovarian = test system: OVCAR-8 ovarian
SK-OV-3 ovarian = test system: SK-OV-3 ovarian
A549 NSCLC = test system: A549 NSCLC
SR leukemia = test system: SR leukemia
OVCAR-4 ovarian = test system: OVCAR-4 ovarian
SK-MEL-5 melanoma = test system: SK-MEL-5 melanoma
HS 578T breast = test system: HS 578T breast
HCT-116 colon = test system: HCT-116 colon
SNB-75 CNS = test system: SNB-75 CNS
CAKI-1 renal = test system: CAKI-1 renal
HT29 colon = test system: HT29 colon
MALME-3M melanoma = test system: MALME-3M melanoma
NCI-H23 lung = test system: NCI-H23 lung
RXF 393 renal = test system: RXF 393 renal
DU-145 prostate = test system: DU-145 prostate
UACC-62 melanoma = test system: UACC-62 melanoma
NCI-H226 lung = test system: NCI-H226 lung
OVCAR-3 ovarian = test system: OVCAR-3 ovarian
LOX IMVI melanoma = test system: LOX IMVI melanoma

Measured: TGI

COc1ccc2[nH]c3c(c2c1)CCn1c-3nc2ccccc2c1=O
not listed: CAKI-1 renal | HT29 colon | MALME-3M melanoma | NCI-H23 lung | RXF 393 renal | DU-145 prostate | UACC-62 melanoma | NCI-H226 lung | OVCAR-3 ovarian | LOX IMVI melanoma
> 25 µM: all other assays above

COc1cc2c(c(OC)c1OC)C(=O)[C@H](O)[C@H]2NC(N)=O
48.5 µM: UACC-62 melanoma
not listed: T-47D breast | SK-OV-3 ovarian | SR leukemia | OVCAR-4 ovarian
> 100 µM: all other assays above
